Data as given in the supplement of paper PMC11208160.

Test: recombinant UMI read abundance after kanamycin selection (control-corrected) (log10(CPM+1)); higher = more efficient recombination; extreme values may be limits of the assay; sequences stand for … in AGTGCAGAGAAAATCGGCCAGTTTTCTCTGCCTGCAGTCCGCATGCCGTGGGACCCCTTGGGTTCTAACCTGTTGCCTAGATTTATGCAGCGGACTGCCTTTCTCCCAAAGTGATAAACCGG…AGGTTGGTTTCACT; site = the 11-nt donor
How it was run: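 Sequencing read counts were converted to CPM, averaged over two replicates and scaled by control-derived factors. Results are given as log10(CPM+1). The reads covered the donor–target junction of recombinant UMIs from a pooled Escherichia coli screen of donor and donor-binding-loop pairs for the IS621 bridge recombinase.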
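Further: IS621 bridge recombinase in Escherichia coli cells against a fixed T5 target plasmid.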

Sequence | recombinant UMI read abundance (log10)
CGGAATCCATGGACCGGTTTTCCCGGTAATCCGTATTTGTT (site TGGAATCCTAC) | 0
CGGAATCCATGGACCGGTTTTCCCGGTAATCCGTATTTGTT (site TGGAATCCTCA) | 0.00675
CGGAATCCATGGACCGGTTTTCCCGGTAATCCGTATTTGTT (site TGGAATGCTAA) | 0.00525
CGGAATCCATGGACCGGTTTTCCCGGTAATCCGTATTTGTT (site TGGACTCCTAA) | 0.027
CGGAATCCATGGACCGGTTTTCCCGGTAATCCGTATTTGTT (site TGGCATCCTAA) | 0.00352
CGGAATCCATGGACCGGTTTTCCCGGTAATCCGTATTTGTT (site TTGAATCCTAA) | 0.00378
CGGAATGCATGGACCGGTTTTCCCGGTAATCCGTATTTGCA (site CGGAATGCTTG) | 2.28
CGGAATGCATGGACCGGTTTTCCCGGTAATCCGTATTTGTG (site CGGAATCCTAA) | 0
CGGAATGCATGGACCGGTTTTCCCGGTAATCCGTATTTGTG (site CGGAATGCTCA) | 2.58
CGGACTCCATGGACCGGTTTTCCCGGTAATCCGTATTTGTT (site CGGAATCCTAA) | 0.00938
CGGACTCCATGGACCGGTTTTCCCGGTAATCCGTATTTGTT (site CGGACTCCTAA) | 1.58
CGGACTCCATGGACCGGTTTTCCCGGTAATCCGTATTTGTT (site CGGAGTCCTAA) | 0.00177
CGGACTCCATGGACCGGTTTTCCCGGTAATCCGTATTTGTT (site CGGATTCCTAA) | 0.00394
CGGAGATCATGGACCGGTTTTCCCGGTAATCCGTATTTGGT (site CGGAGATCTAC) | 2.19
CGGAGCACATGGACCGGTTTTCCCGGTAATCCGTATTTGAA (site CGGAGCACTTT) | 1.77
CGGAGTCCATGGACCGGTTTTCCCGGTAATCCGTATTTGTT (site CGGAATCCTAA) | 0.767
CGGAGTCCATGGACCGGTTTTCCCGGTAATCCGTATTTGTT (site CGGACTCCTAA) | 0.011
CGGAGTCCATGGACCGGTTTTCCCGGTAATCCGTATTTGTT (site CGGAGTCCTAA) | 0.684
CGGAGTCCATGGACCGGTTTTCCCGGTAATCCGTATTTGTT (site CGGATTCCTAA) | 0

Sequence | recombinant UMI read abundance (log10)
CGGATACCATGGACCGGTTTTCCCGGTAATCCGTATTTGTT (site CGGAATCCTAA) | 0.00671
CGGATACCATGGACCGGTTTTCCCGGTAATCCGTATTTGTT (site CGGATACCTAA) | 0
CGGATTGCATGGACCGGTTTTCCCGGTAATCCGTATTTGCT (site CGGATTGCTAG) | 1.79
CGGCAGACATGGACCGGTTTTCCCGGTAATCCGTATTTGGT (site CGGCAGACTAC) | 1.9
CGGCCCTCATGGACCGGTTTTCCCGGTAATCCGTATTTGCA (site CGGCCCTCTTG) | 3.02
CGGCGGACATGGACCGGTTTTCCCGGTAATCCGTATTTGTG (site CGGCGGACTCA) | 1.64
CGGCGTTCATGGACCGGTTTTCCCGGTAATCCGTATTTGAC (site CGGCGTTCTGT) | 1.69
CGGCTGCCATGGACCGGTTTTCCCGGTAATCCGTATTTGTT (site CGGCTGCCTAA) | 0.0892
CGGCTTACATGGACCGGTTTTCCCGGTAATCCGTATTTGTC (site CGGCTTACTGA) | 1.65
CGGGAACCATGGACCGGTTTTCCCGGTAATCCGTATTTGAC (site CGGGAACCTAT) | 0
CGGGAACCATGGACCGGTTTTCCCGGTAATCCGTATTTGAC (site CGGGAACCTCT) | 0
CGGGAACCATGGACCGGTTTTCCCGGTAATCCGTATTTGAC (site CGGGAACCTGT) | 0
CGGGAACCATGGACCGGTTTTCCCGGTAATCCGTATTTGAC (site CGGGAACCTTT) | 0.0135
CGGGAATCATGGACCGGTTTTCCCGGTAATCCGTATTTGAT (site CGGGAAACTAT) | 1.23
CGGGAATCATGGACCGGTTTTCCCGGTAATCCGTATTTGAT (site CGGGAACCTAT) | 0
CGGGAATCATGGACCGGTTTTCCCGGTAATCCGTATTTGAT (site CGGGAAGCTAT) | 0.284
CGGGAATCATGGACCGGTTTTCCCGGTAATCCGTATTTGAT (site CGGGAATCTAT) | 2.01
CGGGACACATGGACCGGTTTTCCCGGTAATCCGTATTTGTC (site CGGGACACTGA) | 3.03
CGGGAGCCATGGACCGGTTTTCCCGGTAATCCGTATTTGCC (site CGGGAGACTGG) | 0.0249
